Here are results for 1 compound from article PMC6438731, “Extrasynaptic δ‐GABAA receptors are high‐affinity muscimol receptors” (Journal of Neurochemistry, 2019).

“And” between values parts separate entries of the source, which are not always exact repeats. Equal values may be shown once.

Test [1] concerns the target cerebellar membranes of WT mice. Briefly: Saturation analysis of [^3H]muscimol binding, WT cerebellar membranes. Conditions: 0°C. Also noted: species or system mouse. The protocol: (§1) WT and δKO forebrain and cerebellar membranes were prepared using a modification of the method of Squires and Saederup (2000) essentially as described by Uusi‐Oukari et al. (2014). […] forebrain along with midbrain region was homogenized into 10 mM Tris‐HCl, pH 8.0 buffer containing 2 mM EDTA, using an Ultra‐Turrax T25 (Janke & Kunkel IKA labortechnik) for 20 s at 9500 rpm. The homogenates were centrifuged at 20 000 g for 10 min at +4°C and the resulting pellets were washed three times by resuspension and re‐centrifugation with 10 mM Tris‐HCl, pH 8.5 buffer containing 0.2 M NaCl, and 5 mM EDTA. The resulting pellets were then suspended in ice‐cold H2O and centrifuged. The pellets were again washed three times with Tris, pH 8.5/NaCl/EDTA as described above. The resulting pellets were finally suspended in assay buffer consisting of 50 mM Tris‐base, pH adjusted to 7.4 with citric acid, and frozen at −70°C. Before a binding experiment, the suspension was thawed, centrifuged, and suspended in assay buffer.
(§2) Saturation analysis of [^3H]muscimol to WT and δKO mouse forebrain and cerebellar membranes was performed essentially as described by Uusi‐Oukari and Korpi (1989). […] The incubations were terminated as described above.

Test [2] has as its target T1, α6β2δ recombinant GABAA receptor (Rattus norvegicus, UniProt P30191+P63138).
T1 construct: expressed in transfected cells; host or cells: HEK293 (ATCC CRL-1573), pRK5 plasmids, membranes
Briefly: [^3H]muscimol binding kinetics, recombinant α6β2δ in HEK293 membranes. An excerpt: (§3) Human embryonic kidney (HEK) 293 cells (ATCC Cat# CRL‐1573; RRID: CVCL_0045; a commonly misidentified cell line by ICLAC; last authenticated by STR DNA profiling in December 2018) were transfected with rat cDNAs (α1, L08490; α6, L08495; β2, X15467; β3, X15468; γ2S, L08497; δ, L08496) in pRK5 plasmids under the control of the cytomegalovirus promoter (Uusi‐Oukari et al. 2000), using the calcium phosphate precipitation method essentially as described (Lüddens and Korpi 1997). The plasmids were used in 1 : 1 and 1 : 1 : 1 ratios for transfections containing 2 [(α1 or α6) + (β2 or β3)] or 3 [(α1 or α6) + (β2 or β3) + (γ2S or δ)] different subunits, respectively (5 μg of each plasmid DNA for a 10 cm plate). Mock transfection was done using 5 μg pRK5 plasmid backbone. The cells were harvested 48 h after transfection. Culture medium was removed and the cells were detached from the plates by pipetting in ice‐cold assay buffer containing 2 mM EDTA. The cells were homogenized (Ultra Turrax, 20 s at 9500 rpm), the homogenates centrifuged at 20 000 g for 10 min at +4°C, and washed once with the same buffer. The homogenates were finally suspended in assay buffer (1 mL/plate) and either used directly to binding assays or stored frozen at −70°C.
(§4) The binding of [^3H]muscimol (5 nM) was measured in assay buffer at 22°C in a total volume of 300 μL. Triplicate technical replicates of mouse forebrain (190–215 μg protein), cerebellar (180–210 μg protein) or HEK cell (92–132 μg protein) membranes for each time point were incubated with shaking for various times (15 s–15 min) to measure association of the binding. […] The incubation was terminated by filtration of the samples with a Brandel Cell Harvester (model M‐24, Gaithersburg, MD, USA) onto Whatman GF/B filters (Whatman International Ltd., Maidstone, UK). The samples were rinsed twice with 4–5 mL of ice‐cold assay buffer. Filtration and rinsing steps took a total time of ~15 s. Air‐dried filters were immersed in 3 mL of Optiphase HiSafe 3 scintillation fluid (Wallac, Turku, Finland) and radioactivity determined in a Wallac model 1410 liquid scintillation counter (Wallac, Turku, Finland). The maximal binding disintegrations per minute (DPM) values (at 15 min in association) for recombinant studies with 5 nM [^3H]muscimol were between 700 and 2500 DPMs of specific binding (background subtracted). In native membranes, the maximal DPM values were between 2500 and 3000 for WTs and 1300–1500 for δKOs.
(§5) The tubes were mixed and incubations at 22°C were terminated at various time points (30 s – 30 min) as described above. Dissociation of [^3H]muscimol from recombinant receptors in HEK cell membranes was also measured at 0–4°C (on ice) to evaluate how fast [^3H]muscimol dissociates from receptors while washing the filter with ice‐cold assay buffer during filtration.

The target of test [3] is T2, α1β2 recombinant GABAA receptor (Rattus norvegicus, UniProt P62813+P63138).
T2 construct: expressed in transfected cells; host or cells: HEK293 (ATCC CRL-1573), pRK5 plasmids, membranes
T2 sequence (P62813 28-455): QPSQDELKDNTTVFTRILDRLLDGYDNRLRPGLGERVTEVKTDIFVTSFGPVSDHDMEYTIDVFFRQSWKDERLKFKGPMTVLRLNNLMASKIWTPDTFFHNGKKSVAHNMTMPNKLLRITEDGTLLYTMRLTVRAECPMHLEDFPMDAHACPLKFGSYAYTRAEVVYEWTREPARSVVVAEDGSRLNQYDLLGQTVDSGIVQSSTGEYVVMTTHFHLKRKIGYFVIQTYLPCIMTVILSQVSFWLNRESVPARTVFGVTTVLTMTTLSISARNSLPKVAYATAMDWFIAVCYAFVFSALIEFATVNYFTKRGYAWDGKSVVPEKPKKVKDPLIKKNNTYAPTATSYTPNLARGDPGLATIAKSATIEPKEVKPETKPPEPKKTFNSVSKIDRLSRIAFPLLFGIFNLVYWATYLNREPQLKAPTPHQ
T2 sequence (P63138 26-474): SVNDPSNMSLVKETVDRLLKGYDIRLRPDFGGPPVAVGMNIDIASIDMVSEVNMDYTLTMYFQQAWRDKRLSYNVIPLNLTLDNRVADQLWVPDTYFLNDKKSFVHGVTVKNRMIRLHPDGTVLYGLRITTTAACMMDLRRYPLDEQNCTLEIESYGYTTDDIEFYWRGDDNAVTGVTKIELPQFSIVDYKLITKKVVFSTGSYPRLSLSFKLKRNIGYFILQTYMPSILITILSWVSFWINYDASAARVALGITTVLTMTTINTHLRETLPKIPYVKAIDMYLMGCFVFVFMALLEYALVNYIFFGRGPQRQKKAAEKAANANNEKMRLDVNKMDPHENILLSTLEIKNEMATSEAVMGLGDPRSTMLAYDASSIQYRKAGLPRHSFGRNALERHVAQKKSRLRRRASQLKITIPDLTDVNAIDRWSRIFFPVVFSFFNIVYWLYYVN
Briefly: [^3H]muscimol binding kinetics, recombinant α1β2 in HEK293 membranes. Conditions: room temperature (22°C).
Text: (§6) Human embryonic kidney (HEK) 293 cells (ATCC Cat# CRL‐1573; RRID: CVCL_0045; a commonly misidentified cell line by ICLAC; last authenticated by STR DNA profiling in December 2018) were transfected with rat cDNAs (α1, L08490; α6, L08495; β2, X15467; β3, X15468; γ2S, L08497; δ, L08496) in pRK5 plasmids under the control of the cytomegalovirus promoter (Uusi‐Oukari et al. 2000), using the calcium phosphate precipitation method essentially as described (Lüddens and Korpi 1997). The plasmids were used in 1 : 1 and 1 : 1 : 1 ratios for transfections containing 2 [(α1 or α6) + (β2 or β3)] or 3 [(α1 or α6) + (β2 or β3) + (γ2S or δ)] different subunits, respectively (5 μg of each plasmid DNA for a 10 cm plate). […]
(§7) The binding of [^3H]muscimol (5 nM) was measured in assay buffer at 22°C in a total volume of 300 μL. […] Air‐dried filters were immersed in 3 mL of Optiphase HiSafe 3 scintillation fluid (Wallac, Turku, Finland) and radioactivity determined in a Wallac model 1410 liquid scintillation counter (Wallac, Turku, Finland).
as §5

Test [4] concerns the target forebrain membranes of WT mice. The experiment in a line: Saturation analysis of [^3H]muscimol binding, WT forebrain membranes. Also on record: species or system mouse. Conditions: 0°C. The protocol:
as §1, §2

For test [5], the target named is T3, α6β2γ2 recombinant GABAA receptor (Rattus norvegicus, UniProt P30191+P63138).
T3 construct: expressed in transfected cells; host or cells: HEK293 (ATCC CRL-1573), pRK5 plasmids, membranes
T3 sequence (P30191 20-453): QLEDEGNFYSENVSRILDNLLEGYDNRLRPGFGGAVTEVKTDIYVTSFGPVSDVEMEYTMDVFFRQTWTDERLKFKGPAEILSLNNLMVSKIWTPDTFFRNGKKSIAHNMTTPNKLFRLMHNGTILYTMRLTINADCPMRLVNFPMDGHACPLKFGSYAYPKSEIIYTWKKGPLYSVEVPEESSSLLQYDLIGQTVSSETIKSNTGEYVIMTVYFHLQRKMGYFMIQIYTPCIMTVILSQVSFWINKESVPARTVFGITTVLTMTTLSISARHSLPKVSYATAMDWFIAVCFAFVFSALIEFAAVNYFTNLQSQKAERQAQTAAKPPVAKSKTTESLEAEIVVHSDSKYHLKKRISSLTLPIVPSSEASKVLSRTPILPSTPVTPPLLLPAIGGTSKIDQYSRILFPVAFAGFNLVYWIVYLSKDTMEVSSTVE
T3 sequence (P63138 26-474): as the sequence (P63138 26-474) above
T3 sequence (P18508 39-466 partner): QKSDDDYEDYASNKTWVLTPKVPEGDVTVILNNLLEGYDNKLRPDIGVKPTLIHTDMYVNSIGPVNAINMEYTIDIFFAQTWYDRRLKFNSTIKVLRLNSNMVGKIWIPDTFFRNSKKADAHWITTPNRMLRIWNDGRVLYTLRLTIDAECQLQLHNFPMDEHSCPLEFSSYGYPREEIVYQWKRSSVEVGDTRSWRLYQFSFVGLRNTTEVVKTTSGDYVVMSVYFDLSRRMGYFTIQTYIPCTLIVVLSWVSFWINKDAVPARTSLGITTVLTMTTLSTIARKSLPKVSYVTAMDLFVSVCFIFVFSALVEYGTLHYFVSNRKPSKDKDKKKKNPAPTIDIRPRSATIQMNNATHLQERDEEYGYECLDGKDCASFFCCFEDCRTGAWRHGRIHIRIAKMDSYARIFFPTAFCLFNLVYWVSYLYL
The experiment in a line: [^3H]muscimol binding kinetics, recombinant α6β2γ2 in HEK293 membranes.
Text: as §3
as §4, with “In native membranes, the maximal DPM values were between 2500 and 3000 for WTs and 1300–1500 for δKOs.” left out
as §5

For test [6], the target named is native δ‐GABAARs in the forebrain (WT‐δKO, predominantly α4βδ) (Mus musculus, UniProt P63137+Q9D6F4). Briefly: [^3H]muscimol binding kinetics, forebrain WT‐δKO (subtracted). Conditions: 22°C. The protocol: as §1
native δ‐GABAARs in the forebrain (WT‐δKO, predominantly α4βδ), sequence (Q9D6F4 36-552): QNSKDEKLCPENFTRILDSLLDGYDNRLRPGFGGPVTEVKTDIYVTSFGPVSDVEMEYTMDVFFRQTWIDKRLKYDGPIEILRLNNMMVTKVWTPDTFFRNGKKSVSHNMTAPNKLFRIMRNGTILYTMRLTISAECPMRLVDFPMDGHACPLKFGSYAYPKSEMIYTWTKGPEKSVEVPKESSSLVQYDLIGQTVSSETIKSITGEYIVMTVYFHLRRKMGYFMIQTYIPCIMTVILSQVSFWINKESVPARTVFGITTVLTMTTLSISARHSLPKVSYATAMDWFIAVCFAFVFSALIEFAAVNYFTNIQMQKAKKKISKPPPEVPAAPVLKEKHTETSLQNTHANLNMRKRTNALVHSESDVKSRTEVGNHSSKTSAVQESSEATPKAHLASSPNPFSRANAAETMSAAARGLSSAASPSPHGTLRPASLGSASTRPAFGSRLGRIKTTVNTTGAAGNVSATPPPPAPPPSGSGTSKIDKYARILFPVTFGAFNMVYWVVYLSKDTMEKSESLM
native δ‐GABAARs in the forebrain (WT‐δKO, predominantly α4βδ), sequence (P63137 26-512): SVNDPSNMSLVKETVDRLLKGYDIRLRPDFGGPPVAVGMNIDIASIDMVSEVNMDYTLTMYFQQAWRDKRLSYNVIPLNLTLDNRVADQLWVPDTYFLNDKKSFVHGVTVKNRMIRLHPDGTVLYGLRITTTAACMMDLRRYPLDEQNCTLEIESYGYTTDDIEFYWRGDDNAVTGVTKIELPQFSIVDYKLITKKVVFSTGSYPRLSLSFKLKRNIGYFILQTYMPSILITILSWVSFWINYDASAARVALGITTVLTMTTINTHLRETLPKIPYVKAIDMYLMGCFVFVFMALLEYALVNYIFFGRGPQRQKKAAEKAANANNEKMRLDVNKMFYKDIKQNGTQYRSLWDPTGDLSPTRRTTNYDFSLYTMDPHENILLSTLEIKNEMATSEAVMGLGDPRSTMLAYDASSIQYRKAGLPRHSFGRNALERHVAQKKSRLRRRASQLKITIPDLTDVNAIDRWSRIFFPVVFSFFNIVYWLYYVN
native δ‐GABAARs in the forebrain (WT‐δKO, predominantly α4βδ), sequence (P22933 25-449 partner): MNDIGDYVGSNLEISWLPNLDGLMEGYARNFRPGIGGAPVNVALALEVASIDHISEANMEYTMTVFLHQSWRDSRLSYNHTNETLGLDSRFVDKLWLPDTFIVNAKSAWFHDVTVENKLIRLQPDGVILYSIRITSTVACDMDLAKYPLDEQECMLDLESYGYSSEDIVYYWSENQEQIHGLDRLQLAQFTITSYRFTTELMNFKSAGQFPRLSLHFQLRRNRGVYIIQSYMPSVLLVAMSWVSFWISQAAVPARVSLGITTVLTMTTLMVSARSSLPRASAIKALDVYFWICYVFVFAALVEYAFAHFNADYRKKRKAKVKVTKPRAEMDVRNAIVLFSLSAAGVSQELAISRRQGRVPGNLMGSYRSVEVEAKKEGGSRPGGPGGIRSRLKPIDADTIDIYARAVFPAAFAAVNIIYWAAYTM
The binding of [^3H]muscimol (5 nM) was measured in assay buffer at 22°C in a total volume of 300 μL. Triplicate technical replicates of mouse forebrain (190–215 μg protein), cerebellar (180–210 μg protein) or HEK cell (92–132 μg protein) membranes for each time point were incubated with shaking for various times (15 s–15 min) to measure association of the binding. […] Air‐dried filters were immersed in 3 mL of Optiphase HiSafe 3 scintillation fluid (Wallac, Turku, Finland) and radioactivity determined in a Wallac model 1410 liquid scintillation counter (Wallac, Turku, Finland). […]
The tubes were mixed and incubations at 22°C were terminated at various time points (30 s – 30 min) as described above. Dissociation of [^3H]muscimol from recombinant receptors in HEK cell membranes was also measured at 0–4°C (on ice) to evaluate how fast [^3H]muscimol dissociates from receptors while washing the filter with ice‐cold assay buffer during filtration. […]

Test [7] addresses T4, α1β2δ recombinant GABAA receptor (Rattus norvegicus, UniProt P62813+P63138).
T4 construct: expressed in transfected cells; host or cells: HEK293 (ATCC CRL-1573), pRK5 plasmids, membranes
The experiment in a line: [^3H]muscimol binding kinetics, recombinant α1β2δ in HEK293 membranes. Conditions: room temperature (22°C).
Text: as §6, §7, §5

Where [8] appears, read: forebrain WT‐δKO (native δ‐GABAARs, by subtraction).

T1 sequence (P30191 20-453): as the sequence (P30191 20-453) above
T1 sequence (P63138 26-474): as the sequence (P63138 26-474) above
T1 sequence (P18506 25-449 partner): as the sequence (P22933 25-449 partner) above, with A38P, L149M counted along it
T4 sequence (P62813 28-455): as the sequence (P62813 28-455) above
T4 sequence (P63138 26-474): as the sequence (P63138 26-474) above
T4 sequence (P18506 25-449 partner): as the sequence (P22933 25-449 partner) above, with A38P, L149M counted along it

On to `NCc1cc(=O)[nH]o1` [[^3H]muscimol] [[Methylene‐^3H]muscimol], for which the entries for the “Apparent pKD” value in test [1] and in test [4] were 8.34 ± 0.01 and 8.02 ± 0.06, respectively. Also, the Kd in test [2] (α6β2δ in HEK293 membranes, 22°C, K D = koff/kon) was 1.3 nM; in test [5] (22°C, K D = koff/kon) it was 1.6 nM; in test [6] (forebrain WT‐δKO (native δ‐GABAARs, α4βδ), K D = koff/kon), ~1.6 nM and 1.6 nM. Also, the k off in test [2] (α6β2δ in HEK293 membranes, +4 °C) is 0.015 ± 0.003 ^*** min^−1; in test [2] (α6β2δ in HEK293 membranes, room temperature (22°C)), 0.13 ± 0.03 ^### min^−1; in test [3], 0.49 ± 0.07 ^### min^−1; in test [5] (+4 °C), 0.086 ± 0.010 ^, ^** min^−1; in test [5] (room temperature (22°C)) it was 0.98 ± 0.02 ^### ^, ^††† min^−1; in test [6] (setting [8]), 0.23 ± 0.02 min⁻¹. Further, the k off in test [7] is listed as 0.18 ± 0.03 ^### min^−1. The k on is given as 1.0 ± 0.1 × 10^8, ^### M^−1 × min^−1 in test [2] (α6β2δ in HEK293 membranes, room temperature (22°C), 5 nM [^3H]muscimol); 6.3 ± 0.5 × 10^8, ^### ^, ^††† M^−1 × min^−1 in test [5] (room temperature (22°C), 5 nM [^3H]muscimol); 1.4 ± 0.2 × 10^8 M^−1 × min^−1 in test [6] (setting [8]). For the same compound, the “association rate constant kon lower when compared to γ2‐GABAARs” value in test [2] (α6β2δ vs α1β2γ2 and α6β2γ2, 22°C) was 6.3–11 fold. Further, the “[^3H]muscimol still remaining bound” value in test [2] (α6β2δ, 0°C, 30 min after start of the dissociation) worked out at 70%.
